Literature values, collected in PMC10952301, “Solid‐Phase Synthesis and Biological Evaluation of Peptides ADP‐Ribosylated at Histidine” (Angewandte Chemie (International Ed. in English), 2023).

Conditions: quoted without reference to compare leaving group capacity

With c1c[nH]nn1 [1,2,3‐triazole] as the compound, how does the pKa read?
Its pKa is 9.4.
